Laboratory results published in patent publication US12459951B2, “Compounds that interact with RAS superfamily proteins for treatment of cancers, inflammatory diseases, rasopathies, and fibrotic disease” (SHY Therapeutics, LLC, priority 2022, dated 2025).
Read-outs that look alike come from different tables or passages of the source.

Key:
[1] = test system: JNK phosphorylation; experiment: JNK Activation Assay (western blot), Panc-1; type: cell-based, human; conditions: at 10 μM, Panc-1 pancreatic cancer cell line; starred symbols = activation
Description: Protocol for JNK Activation Assay
This assay is referred to as the “JNK Activation Assay” throughout this application.
Cell lines: Human tumor-derived pancreatic cancer cell line Panc-1 (expressing KRas […] mutant) was purchased from American Type Culture Collection and grown in complete DMEM-High Glucose medium, supplemented with penicillin (100 U/mL), streptomycin (100 μg/mL), and 10% heat-inactivated FBS at 37° C. in a humidified incubator with 5% CO2.
Method 1: Cells were plated at 350000 cells/well density in a 12-well plate, allowed 3 hours to adhere to the plate, then starved in the appropriate medium in the presence of 0.5% FBS overnight. The small molecules to be tested were added to the cells in the final concentration of 10 μM in the presence of 0.3% DMSO for 6 hours incubation at 37° C. For IC50 value determination, serial dilutions of compounds were added to cells under the same conditions. Next, cells were stimulated with 1.5 ng/ml EGF for 15 minutes then cells were lysed with lysis buffer containing 1% Triton X-100, EDTA, and Halt™ Protease & Phosphatase Inhibitor Cocktail (Thermo Scientific). Protein concentration was assessed by BCA protein assay (Thermo Scientific). Phosphorylation level of JNK was determined by western blot.
Method 2: Cells were plated at 350000 cells/well density in a 12-well plate in the presence of 10% FBS. The next day small molecules to be tested were added to the cells in the final concentration of 10 μM in the presence of 0.3% DMSO for 6 hours incubation at 37° C. For IC50 value determination, serial dilutions of compounds were added to cells under the same conditions. Next, cells were lysed with lysis buffer containing 1% Triton X-100, EDTA, and Halt™ Protease & Phosphatase Inhibitor Cocktail (Thermo Scientific). Protein concentration was assessed by BCA protein assay (Thermo Scientific). Phosphorylation level of JNK was determined by western blot.
Western blot protocol: Equal amounts of protein (15-50 μg) were separated by SDS-PAGE and transferred to nitrocellulose membranes (Invitrogen by Thermo Fisher Scientific). The membrane was stained with Ponceau S Stain (Boston BioProducts) to verify uniform protein loading. Membranes were blocked with 10% milk and phosphorylation levels of JNK were assessed by incubating overnight at 4° C. with the antibody Phospho-SAPK/JNK (Thr183/Tyr185), from Cell Signaling Technology. Then the membranes were incubated with HRP-conjugated secondary antibody (Jackson Immunoresearch, West Grove, PA). Bands were incubated in Amersham ECL Prime Western Blotting Detection Reagent (GE Healthcare) and visualized using the ChemiDoc MP imaging system (Bio-Rad).

[2] = test system: BT-549 (expressing wild type KRAS); experiment: Proliferation Assay (Cell Viability Assay); type: cell-based; conditions: Homo sapiens
Description: (§1) Cell lines: these Human tumor-derived cell lines were purchased from American Type Culture Collection. Human tumor-derived pancreatic cancer cell line MiaPaca-2 (expressing KRAS G12C mutant) and Panc-1 (expressing KRas G12D mutant), and Human non-small cell lung cancer (NSCLC) cell line A549 (expressing KRas G12S mutant), and Human melanoma cell line A375 (wild type Kras) were grown in complete DMEM-High Glucose medium. Human tumor-derived pancreatic cancer cell lines SU86.86 (expressing KRas G12D mutant), BxPC3 (expressing wild type K-Ras), and Human non-small cell lung cancer (NSCLC) cell lines NCI-H441 (expressing KRas G12S mutant), NCI-H1975 (expressing wild type KRas), NCI-H358 (expressing KRas G12C mutant), NCI-H1299 (expressing NRas Q61H mutant), and Human colon cancer cell line SW-620 (expressing KRas G12V mutant), Human triple negative breast cancer cell line HCC-1806 (expressing wild type KRas), and Human tumor-derived multiple myeloma cell line MM.1R (expressing wild type KRAS), were grown in RPMI 1640 medium. Human tumor-derived breast cancer cell line BT-549 (expressing wild type KRAS) was grown in RPMI 1640 medium in the presence of 11.8U insulin. Human tumor-derived pancreatic cancer cell line HPAF-II (expressing KRas G12D mutant), Human triple negative breast cancer cell line BT-20 (expressing wild type KRas), and Human colon cancer cell line LS123 (expressing KRas G12S mutant), were grown in EMEM medium. Human tumor-derived pancreatic cancer cell line CF-PAC1 (expressing KRas G12V mutant) was frown in IMDM medium, and Human colon cancer cell line HT29 (expressing wild type KRas) was grown in McCoy's 5A medium. The colon cancer cell line GP2d (expressing KRas G12D mutant) was purchased from MilliporeSigma and grown in DMEM-High Glucose medium. All cell lines were supplemented with penicillin (100 U/mL), streptomycin (100 μg/mL), and 10% heat-inactivated FBS at 37° C. in a humidified incubator with 5% CO2.
(§2) Method: Cells were plated at 2000 to 5000 cells/well density in 96-wells plate and cultured overnight. Small molecules that were tested were added to the cells in the final concentration of 10 μM in the presence of 0.3% DMSO and 10% FBS, and incubated for 2-4 days at 37° C. in a humidified incubator with 5% CO2. For IC50 value determination, serial dilutions of compounds were added to cells under the same conditions.
(§3) Assay: At the end of the incubation period, cell viability was determined using the CellTiter 96® Aqueous One Solution Cell Proliferation Assay according to manufacturer specifications (Promega, Madison, WI). The percentage of small molecules inhibition of cellular proliferation was calculated from raw data.

[3] = test system: GP2d (expressing KRas G12D mutant); experiment: Proliferation Assay (Cell Viability Assay); type: cell-based; conditions: Homo sapiens
Description: as §1, §2, §3

[4] = test system: NCI-H358 (expressing KRas G12C mutant); experiment: Proliferation Assay (Cell Viability Assay); type: cell-based; conditions: Homo sapiens
Description: as §1, §2, §3

[5] = test system: A375 (wild type Kras); experiment: Proliferation Assay (Cell Viability Assay); type: cell-based; conditions: Homo sapiens, A-375
Description: as §1, §2, §3

[6] = test system: MM.1R (expressing wild type KRAS); experiment: Proliferation Assay (Cell Viability Assay); type: cell-based; conditions: Homo sapiens, read-out: MM.1R IC50 (nM) Multiple Myloma
Description: as §1, §2, §3

[7] = BT-549, Proliferation assay, BT549, read-out: BT549 IC50 (nM) TNBC
[8] = Proliferation assay, read-out: GP2d IC50 (nM) Colorectal
[9] = Proliferation assay, NCI-H358, read-out: NCI-H358 IC50 (nM) NSCLC
[10] = Proliferation assay, A375, read-out: A375 IC50 (nM) Melanoma

IC50 [2, 7] [nM]	IC50 ([2]; BT-549, Breast (TNBC), KRas WT, read-out: Proliferation assay IC50) [nM]	IC50 ([4]; NCI-H358, NSCLC, KRas G12C, read-out: Proliferation assay IC50) [nM]	IC50 [4, 9] [nM]	IC50 ([5]; A375, melanoma, KRas WT, read-out: Proliferation assay IC50) [nM]	IC50 [5, 10] [nM]	IC50 [6] [nM]	SMILES	% inh of JNK in Panc-1 [1]	IC50 [3, 8] [nM]	IC50 ([3]; colon, KRas G12D, read-out: Proliferation assay IC50) [nM]
							CO[C@H]1CC[C@@H](Nc2nc(-c3ccccn3)nn3cc(-c4ccn(C(C)C)n4)c(C)c23)C1 (racemic) [Compound 9, rac 6-(1-Isopropyl-1H-pyrazol-3-yl)-N-((1R,3S)-3-methoxycyclopentyl)-5-methyl-2-(pyridin-2-yl)pyrrolo[2,1-f][1,2,4]triazin-4-amine]	F* (F* = 31-74% activation)		
> 50	< 150	< 150	10 to 50	< 150	> 50	1 to 10	COc1cc(Nc2nc(-c3nccn3C)nn3cc(-c4ccn(C(C)C)n4)c(C)c23)ncn1 [Compound 6, 6-(1-Isopropyl-1H-pyrazol-3-yl)-N-(6-methoxypyrimidin-4-yl)-5-methyl-2-(1-methyl-1H-imidazol-2-yl)pyrrolo[2,1-f][1,2,4]triazin-4-amine]	H* (H* ≥ 100% activation)	> 50	150 to 500
							Cc1c(-c2ccn(C(C)C)n2)cn2nc(-c3ccccn3)nc(O)c12 [Compound 8, 6-(1-Isopropyl-1H-pyrazol-3-yl)-5-methyl-2-(pyridin-2-yl)pyrrolo[2,1-f][1,2,4]triazin-4-ol]	E* (E* = 1-30% activation)		
							Cc1c(-c2ccn(C(C)C)n2)cn2nc(-c3nccn3C)nc(Nc3nccn3C)c12 [Compound 93, 6-(1-Isopropyl-1H-pyrazol-3-yl)-5-methyl-N,2-bis(1-methyl-1H-imidazol-2-yl)pyrrolo[2,1-f][1,2,4]triazin-4-amine]	H* (H* ≥ 100% activation)		
10 to 50			> 50		> 50	< 1	Cc1c(-c2ccn(C)n2)cn2nc(-c3nccn3C)nc(Nc3cc4n(n3)CCC4)c12 [Compound 100, N-(5,6-Dihydro-4H-pyrrolo[1,2-b]pyrazol-2-yl)-5-methyl-2-(1-methyl-1H-imidazol-2-yl)-6-(1-methyl-1H-pyrazol-3-yl)pyrrolo[2,1-f][1,2,4]triazin-4-amine]		10 to 50	
1 to 10			1 to 10		1 to 10	< 1	COc1ccnc(Nc2nc(-c3nccn3C)nn3cc(-c4ccn(C)n4)c(C)c23)c1 [Compound 102, N-(4-Methoxypyridin-2-yl)-5-methyl-2-(1-methyl-1H-imidazol-2-yl)-6-(1-methyl-1H-pyrazol-3-yl)pyrrolo[2,1-f][1,2,4]triazin-4-amine]		10 to 50	
10 to 50			> 50		> 50	< 1	Cc1c(-c2ccn(C)n2)cn2nc(-c3nccn3C)nc(Nc3cc(C4CC4)[nH]n3)c12 [Compound 104, N-(5-Cyclopropyl-1H-pyrazol-3-yl)-5-methyl-2-(1-methyl-1H-imidazol-2-yl)-6-(1-methyl-1H-pyrazol-3-yl)pyrrolo[2,1-f][1,2,4]triazin-4-amine]		10 to 50	
1 to 10			1 to 10		1 to 10	< 1	Cc1c(-c2ccn(C)n2)cn2nc(-c3nccn3C)nc(Nc3cc4n(n3)CCO4)c12 [Compound 124, N-(5-Methyl-2-(1-methyl-1H-imidazol-2-yl)-6-(1-methyl-1H-pyrazol-3-yl)pyrrolo[2,1-f][1,2,4]triazin-4-yl)-2,3-dihydropyrazolo[5,1-b]oxazol-6-amine]		1 to 10	
